This test has as its target ATP-binding cassette sub-family C member 2 (Rattus norvegicus, UniProt Q63120). Nature of the test: TP_TRANSPORTER: inhibition of DNP-SG uptake in bile canalicular membrane vesicles from SD rat. The class given is functional, cell membranes, Sprague-Dawley, Bile canalicular membrane vesicle.

Drawing on ChEMBL document CHEMBL2074531, “Physicochemical parameters responsible for the affinity of methotrexate analogs for rat canalicular multispecific organic anion transporter (cMOAT/MRP2)” (Pharm Res, 2001), this text covers Ki for 25 molecules.

Sequence of ATP-binding cassette sub-family C member 2 (Q63120 whole entry): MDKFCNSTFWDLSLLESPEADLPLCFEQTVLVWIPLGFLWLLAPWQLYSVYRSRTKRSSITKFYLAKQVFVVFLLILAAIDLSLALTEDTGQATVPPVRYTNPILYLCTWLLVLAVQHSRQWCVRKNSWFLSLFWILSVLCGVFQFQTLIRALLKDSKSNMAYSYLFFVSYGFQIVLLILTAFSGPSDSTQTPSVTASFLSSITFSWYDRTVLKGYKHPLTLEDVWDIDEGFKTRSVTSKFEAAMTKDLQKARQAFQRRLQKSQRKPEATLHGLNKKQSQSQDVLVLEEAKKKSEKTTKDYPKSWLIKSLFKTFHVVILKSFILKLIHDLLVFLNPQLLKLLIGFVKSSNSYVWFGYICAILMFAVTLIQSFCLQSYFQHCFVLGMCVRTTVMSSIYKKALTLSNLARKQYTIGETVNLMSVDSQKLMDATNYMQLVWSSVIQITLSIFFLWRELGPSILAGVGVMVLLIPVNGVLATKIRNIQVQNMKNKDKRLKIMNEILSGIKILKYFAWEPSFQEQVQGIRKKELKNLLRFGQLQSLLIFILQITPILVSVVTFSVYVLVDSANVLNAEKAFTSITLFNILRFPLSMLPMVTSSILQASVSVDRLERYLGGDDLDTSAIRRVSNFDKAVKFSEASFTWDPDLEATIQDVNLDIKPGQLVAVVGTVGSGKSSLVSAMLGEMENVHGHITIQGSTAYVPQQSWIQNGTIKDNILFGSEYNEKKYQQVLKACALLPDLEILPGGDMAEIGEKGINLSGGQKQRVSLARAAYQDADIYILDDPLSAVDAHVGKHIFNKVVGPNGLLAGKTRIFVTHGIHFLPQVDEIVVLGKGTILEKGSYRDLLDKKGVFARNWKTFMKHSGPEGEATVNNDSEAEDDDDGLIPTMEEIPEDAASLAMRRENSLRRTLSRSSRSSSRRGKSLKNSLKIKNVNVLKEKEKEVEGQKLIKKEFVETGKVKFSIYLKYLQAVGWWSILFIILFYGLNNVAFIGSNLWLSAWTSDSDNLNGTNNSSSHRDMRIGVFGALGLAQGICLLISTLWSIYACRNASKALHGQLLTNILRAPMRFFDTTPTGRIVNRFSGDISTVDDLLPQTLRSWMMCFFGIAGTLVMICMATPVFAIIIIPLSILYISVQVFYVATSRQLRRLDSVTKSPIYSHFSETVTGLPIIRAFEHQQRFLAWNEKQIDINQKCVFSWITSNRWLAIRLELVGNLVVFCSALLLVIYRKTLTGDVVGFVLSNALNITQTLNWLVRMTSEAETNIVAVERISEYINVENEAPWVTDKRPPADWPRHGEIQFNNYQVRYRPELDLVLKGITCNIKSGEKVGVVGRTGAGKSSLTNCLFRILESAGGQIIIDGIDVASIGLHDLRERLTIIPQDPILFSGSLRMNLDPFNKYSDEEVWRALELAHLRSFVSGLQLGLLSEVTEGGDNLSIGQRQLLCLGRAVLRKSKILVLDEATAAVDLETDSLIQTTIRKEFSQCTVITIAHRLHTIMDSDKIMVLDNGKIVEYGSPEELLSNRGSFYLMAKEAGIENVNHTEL

In the case of `Nc1nc(N)c2nc(CN3CCOc4cc(C(=O)NC(CCCC(=O)O)C(=O)O)ccc43)cnc2n1` (stereo not given), the inhibition constant Ki (in general, a dissociation constant, usually derived from enzyme kinetics or from competition with a known ligand) was found to be 204 µM.

On to `Nc1nc(N)c2nc(CN3CCOc4cc(C(=O)NC(CCC(=O)O)C(=O)O)ccc43)cnc2n1` (stereo not given), for which the affinity, expressed as Ki, was 311 µM.

With `Nc1nc(N)c2nc(CN3CCSc4cc(C(=O)NC(CCC(=O)O)C(=O)O)ccc43)cnc2n1` (stereo not given), the inhibition constant Ki is 137 µM.

On to `Cc1cc(C(=O)NC(CCC(=O)O)C(=O)O)ccc1N(C)Cc1cnc2nc(N)nc(N)c2n1` (stereo not given), for which the inhibition constant (Ki) worked out at 150 µM.

Molecule `Cc1cc(C(=O)NC(CCC(=O)O)C(=O)O)cc2c1N(Cc1cnc3nc(N)nc(N)c3n1)CC2` (stereo not given) gave a Ki of 173 µM.

The molecule `Nc1nc(N)c2nc(CN3CCSc4cc(C(=O)N[C@@H](CCCC(=O)N[C@@H](CCC(=O)O)C(=O)O)C(=O)O)ccc43)cnc2n1` came in with a Ki of 223 µM.

`CC(C)CC(NC(=O)c1ccc(N(C)Cc2cnc3nc(N)nc(N)c3n2)cc1)C(=O)O` (stereo not given) showed a Ki of 308 µM.

`CCN(Cc1cnc2nc(N)nc(N)c2n1)c1ccc(C(=O)NC(CCCNC(=O)c2ccccc2)C(=O)O)cc1` (stereo not given) displayed a Ki of 32.5 µM.

`Cc1cc(C(=O)NC(CCC(=O)O)C(=O)O)ccc1NCc1cnc2nc(N)nc(N)c2n1` (stereo not given) registered a Ki of 382 µM.

In turn, `Cc1cc(C(=O)NC(CCC(=O)O)C(=O)O)cc(C)c1N(C)Cc1cnc2nc(N)nc(N)c2n1` (stereo not given) yielded an inhibitory constant (Ki) of 39.2 µM.

Consider `CN(Cc1cnc2nc(N)nc(N)c2n1)c1ccc(C(=O)NC(CCCNC(=O)c2ccccc2)C(=O)O)cc1` (stereo not given), for which affinity was put at a Ki of 48.7 µM.

On to `CN(Cc1cnc2nc(N)nc(N)c2n1)c1ccc(C(=O)NC(CCC(=O)NC(CCC(=O)NC(CCC(=O)NC(CCC(=O)N[C@@H](CCC(=O)O)C(=O)O)C(=O)O)C(=O)O)C(=O)O)C(=O)O)cc1` (stereo not given in full), for which the inhibition constant (Ki) was 501 µM.

The molecule `CCC(C)C(NC(=O)c1ccc(N(C)Cc2cnc3nc(N)nc(N)c3n2)cc1)C(=O)O` (stereo not given) showed an inhibition constant (Ki) of 56.9 µM.

Turning to `CC(C)N(Cc1cnc2nc(N)nc(N)c2n1)c1ccc(C(=O)N2C[C@H](O)C[C@H]2C(=O)O)cc1`, the Ki was determined as 784 µM.

`CN(Cc1cnc2nc(N)nc(N)c2n1)c1ccc(C(=O)NC(CCC(=O)NC(CCC(=O)N[C@@H](CCC(=O)O)C(=O)O)C(=O)O)C(=O)O)cc1` (stereo not given in full) came in with a Ki of 838 µM.

In turn, `CCN(Cc1cnc2nc(N)nc(N)c2n1)c1ccc(C(=O)NC(CCC(=O)O)C(=O)O)cc1C` (stereo not given) registered a Ki of 98.3 µM.

The molecule `CN(Cc1cnc2nc(N)nc(N)c2n1)c1ccc(C(=O)N2C[C@H](O)C[C@H]2C(=O)O)cc1` returned a Ki greater than 1000 µM.

`CCCN(Cc1cnc2nc(N)nc(N)c2n1)c1ccc(C(=O)NC(CCCNC(=O)c2ccccc2)C(=O)O)cc1` (stereo not given): the Ki stood at 11.4 µM.

`Cc1cc(C(=O)NC(CCCC(=O)O)C(=O)O)ccc1N(C)Cc1cnc2nc(N)nc(N)c2n1` (stereo not given) came in with a Ki of 133 µM.

`C=CCN(Cc1cnc2nc(N)nc(N)c2n1)c1ccc(C(=O)NC(CCC(=O)O)C(=O)O)cc1` (stereo not given) came in with a Ki of 136 µM.

`CC(C)N(Cc1cnc2nc(N)nc(N)c2n1)c1ccc(C(=O)NC(CCCNC(=O)c2ccccc2)C(=O)O)cc1` (stereo not given) yielded an inhibitory constant (Ki) of 14.8 µM.

As for `Nc1nc(N)c2nc(CN3CCSc4cc(C(=O)NC(CCCC(=O)O)C(=O)O)ccc43)cnc2n1` (stereo not given), affinity was put at a Ki of 159 µM.

In turn, `CCCN(Cc1cnc2nc(N)nc(N)c2n1)c1ccc(C(=O)NC(CCC(=O)O)C(=O)O)cc1` (stereo not given) gave a Ki of 154 µM.

With `CC(C)N(Cc1cnc2nc(N)nc(N)c2n1)c1ccc(C(=O)NC(CCC(=O)O)C(=O)O)cc1` (stereo not given) [ISOAMINOPTERIN], affinity was put at a Ki of 173 µM.

In turn, `CN(Cc1cnc2nc(N)nc(N)c2n1)c1ccc(C(=O)N[C@@H](CCC(=O)O)C(=O)O)cc1` [METHOTREXATE] returned a Ki of 462 µM.
